According to ChEMBL document CHEMBL3853355, “Six new compounds from Atractylodes lancea and their hepatoprotective activities” (2016):

Tested on: HepG2
Test: Hepatoprotective activity against N-acetyl-p-aminophenol-induced cell injury in human HepG2 cells assessed as cell survival at 10 uM after 48 hrs by MTT assay (reference value: 39.87%)
Assay type: functional
Details: HepG2, 48 h, read-out: Survival

Row | SMILES | viability at 10 µM
1 | COc1cc(C(=O)O)ccc1O[C@@H]1O[C@@H](C)[C@H](O)[C@@H](O[C@@H]2O[C@H](CO)[C@@H](O)[C@H](O)[C@H]2O)[C@H]1O | 54.6%
2 | COc1cc(-c2coc3c([C@@H]4O[C@H](CO)[C@@H](O)[C@H](O)[C@H]4O)c(O)ccc3c2=O)ccc1O | 45.2%
3 | COC(=O)c1cc(OC)c2c(c1-c1c(CO)cc(OC)c3c1OCO3)OCO2 [BICYCLOL] | 52.9%
4 | C[C@@H]1O[C@@H](Oc2ccc(C(=O)O)cc2)[C@H](O)[C@H](O[C@@H]2O[C@H](CO)[C@@H](O)[C@H](O)[C@H]2O)[C@H]1O | 54.7%
5 | O=c1c(-c2ccc(O)cc2)coc2c([C@@H]3O[C@H](CO)[C@@H](O)[C@H](O)[C@H]3O)c(O)ccc12 [PUERARIN] | 41.3%
6 | C/C(=C\Cc1cc(C(=O)O)cc2c1O[C@H](C(C)(C)O)[C@H]2O)CO | 53.6%
